Read-outs that look alike come from different tables or passages of the source. Peptide text beside a SMILES is read from it.
Assays:
CD8+ T cells [1] = assay: Enrichment of epitope-specific CD8 T cells from healthy donors, epitope-specific IFNg production (ELISA); type: cell-based, human; conditions: positive co-cultures / co-cultures tested
Experimental: (§1) Enrichment of epitope-specific CD8 T cells was performed according to the protocol described by Butler et al., Clin Cancer Res.;13(6):1857-1867 (2007), doi:10.1158/1078-0432, but included the following amendments. CD8+ T lymphocytes were collected from PBMCs by magnetic-activated cell sorting (MACS) according to the CD8 isolation kit (Miltenyi Biotec). CD8+ T cells with >95% purity were subsequently cultured in T cell medium supplemented with IL-2 (36 IU/mL; but no gentamycin) for 1 day, after which expansion cycles started. K562ABC cells (kindly provided by prof. Bruce Levine, University of Pennsylvania, PA) were loaded with 10 μg/ml ROPN1 and/or ROPN1B peptide and incubated for 5 h at RT in serum-free medium, after which cells were washed and fixed with 0,1% paraformaldehyde. After washing, K562ABC cells were suspended at 0.1×10^6/mL and co-cultured with T cells in a 1:20 ratio. IL-2 (36 IU/mL) and IL-15 ([…]) were added at days 1 and 3 days after start of co-culture, and after 6 days, T cells were counted, suspended at 2×10^6/mL and rested for 1 day, after which the next cycle commenced (this schedule continued up to 4 or 5 cycles). Following 4 and 5 cycles, T cells were stained with pMHC multimers (HLA*0201/MLN, Immudex, Copenhagen, Denmark). pMHC-PE were pre-incubated at RT for 10 min followed by incubation with 7AAD, anti-CD3-FITC and anti-CD8-APC for 20 min. Cells were fixed with 1% paraformaldehyde and TCR expression was measured with flow cytometry and analyzed using FlowJoX software. FIG. 4A schematically depicts the procedure to enrich epitope-specific T cells, and obtainthe corresponding TCR genes.
Enriched T cells were tested for ROPN1 and/or ROPN1B epitope-specific IFNY production. To this end, T2 cells (4×10^6/mL) were loaded with peptide (20 ng/mL) for 30 min. T cells (2×10^5) were cultured in a 1:1 ratio with T2 cells in a round bottom 96-wells plate, and the next day supernatant was collected and IFN-γ production was measured with an Enzyme-linked immunosorbent assay (ELISA, Invitrogen) according to manufacturer's protocol (FIG. 4B). T2 cells without peptide were included as a negative control; and staphylococcal enterotoxin B (0.1 μg, Sigma) was used as a positive control.
Enrichment of epitope-specific T cells was performed by co-culturing naïve T cells with CD11c-positive cells that were loaded with peptide. PBMCs were passed through a cell strainer (70 μm) and used for the isolation of naïve T cells and CD11c cells. To isolate CD11c-positive cells (typically dendritic cells, DC), PBMCs were stained for 10 mM at 4° C. with Fc block (10 μL/10^7 PBMCs, BD Pharmingen, Vianen, the Netherlands), after which cells were stained with CD11c-PE antibody (10 μL/10^7 PBMCs, BD Pharmingen) for 30 mM at 4° C., washed, and incubated with PE beads (10 μL/10^7 PBMCs, Miltenyi Biotech, Bergisch Gladbach, Germany) for another […] at 4° C. After washing, cells were dissolved in magnetic-activated cell sorting (MACS) buffer and passed through a MACS LS column (Miltenyi Biotec) to positively select CD11c cells. After selection, CD11c cells were irradiated with 30 Gy, and cultured overnight in a 24-wells plate (1×10^6/mL) in RPMI medium supplemented with 1% human serum (Sanquin), 1% antibiotics, […] L-glutamine, a DC maturation cocktail (a mixture of GM-CSF (10 ng/mL, ImmunoTools, Germany), IL-4 (10 ng/mL, ImmunoTools), LPS (100 ng/mL, Invitrogen, Goteborg, Sweden) and IFNY (10 ng/mL, Preprotech, London, United Kingdom)), as well as peptide (10 pg/mL). Naïve T cells were isolated with use of the Naïve T Cell isolation kit (Miltenyi Biotec) according to the manufacturer's protocol, and suspended in RPMI medium supplemented with 5% human serum (Sanquin), 1% antibiotics, […] L-glutamine and IL-7 (5 ng/mL, BD Pharmingen). The run-through of the naïve T cell selection was frozen down and used for re-stimulation of epitope-specific T cells. […]

CD8+ T cells [2] = assay: peptide:MHC multimer/tetramer staining of enriched T cells (flow cytometry); type: cell-based, human; conditions: Table 4; enriched T cells after enrichment cycles
Experimental: as §1
Following enrichment, T cells were tested for ROPN1 and/or ROPN1B epitope-specific IFNY production. To this end, T2 cells (1×10^6/mL) were loaded with peptide (20 ng/mL) for 30 min, after which T cells (1×10^5) were cultured in a 1:1 ratio with T2 cells in a round bottom 96-wells plate for 18 h. Supernatant was collected and IFN-γ production was measured with an Enzyme-linked immunosorbent assay (ELISA, BioLegend) according to the manufacturer's protocol (FIG. 9A). T2 cells loaded with an irrelevant peptide were included as a negative control. T cell IFNg production was considered epitope-specific in case levels exceeded 200 pg/ml, and levels were minimally twice as high as for irrelevant peptide (see for full listing of criteria, FIG. 8). T cells that fulfilled these criteria were stained with peptide:MHC (pMHC) tetramers to determine the frequency of epitope-specific T cells. Empty Loadable HLA Tetramers (5 μL, Tetramer shop, Kongens Lyngby, Denmark) were incubated with 0.5 μL peptide (200 μM) for 30 min on ice. Complexes of pMHC were centrifuged (3300 g, 5 min) and incubated with 0.1×10^6 T cells for 15 min at 37° C. in the dark. Next, an antibody cocktail containing CD3-FITC (1:30, BD) and CD8-APC (1:300, eBiosciences) was added and incubated for an additional 30 min at 4° C. in the dark. Finally, T cells were washed twice and fixed with 1% paraformaldehyde (PFA), after which events were acquired with FACSCelesta (BD) and analyzed using FlowJoX software.

HLA-A2 = target: T1, HLA-A2 (Homo sapiens, UniProt P04439, D140Y/D185E/D98H/E176V/E277Q/G131W/G231S/I119V/I121R/I166T/I218V/L300P/L318F/N151K/N90K/P208A/P217A/Q86G/Q94H/R138H/R169H/T345S); assay: HLA-A2 stabilization assay using T2 cells; type: binding; conditions: for binding to HLA-A2: in words, peptides derived from immunopeptidome
T1 construct: The HLA-A2 stabilization assay was performed using T2 cells; endogenous in cells; host or cells: T2 cells (LCLxT lymphoblastoid hybrid cell line 0.1743CEM.T2)

[3] = target: T2, HLA-A2 (HLA-A2:01) on T2 cells (human); assay: HLA-A2 stabilization assay on T2 cells (anti-HLA-A2-PE, flow cytometry), single peptide concentration [panel D]
T2 construct: detected with anti-HLA-A2 mAb BB7.2

[4] = target: T2, HLA-A2 (HLA-A2:01) on T2 cells; assay: HLA-A2 stabilization assay on T2 cells, peptide titration (Example 2, repeated); column Affinity for HLA.A2.01 (M)
[5] = target: T2, HLA-A2 (HLA-A2:01) on T2 cells; assay: HLA-A2 stabilization assay on T2 cells, peptide titration, flow cytometry with anti-HLA-A2 BB7.2; column Affinity for HLA A2:01 (M)
[6] = target: T2, HLA-A2 (HLA-A2:01) on T2 cells; assay: HLA-A2 stabilization assay on T2 cells, peptide titration; amplitude relative to that of reference peptide YLE [panel D]
[7] = target: T2, HLA-A2 (HLA-A2:01) on T2 cells; assay: HLA-A2 stabilization assay on T2 cells (anti-HLA-A2-PE, flow cytometry), single peptide concentration 25 ug/mL [panel E]
[8] = target: T2, HLA-A2 (HLA-A2:01) on T2 cells; assay: HLA-A2 stabilization assay on T2 cells, peptide titration; amplitude = highest data point corrected for baseline [panel E]
[9] = Table 2 (Example 1), healthy donor T cells
[10] = Example 1, top-ranked epitopes, no legible unit, read-out: EC50 (HLA-A2 binding)
[11] = Table 2 (Example 1), EC50 of peptide titration on T2 cells, read-out: Affinity for HLA A2:01
[12] = Table 4 (Examples 1 and 2), EC50 of peptide titration on T2 cells, read-out: Affinity for HLA.A2.01

| EC50 (HLA-A2; [11]) [µM] | EC50 (HLA-A2; [12]) [µM] | Minimum stability [3] [fold change over baseline] | Minimum stability [7] [fold change over baseline] | Molecule | T cell responses observed (IFNg) against epitope (CD8+ T cells [1]; Table 4) | pMHC staining % pMHC+ CD8+ in CD3+ (CD8+ T cells [2]) [%] | also measured |
| --- | --- | --- | --- | --- | --- | --- | --- |
| 4.35 | 4.4 |  |  | CC[C@H](C)[C@H](NC(=O)[C@H](CCCCN)NC(=O)[C@H](CC(C)C)NC(=O)[C@@H](NC(=O)[C@@H](N)CCCCN)[C@@H](C)O)C(=O)N[C@H](C(=O)N[C@@H](CS)C(=O)N[C@@H](CCC(=O)O)C(=O)N[C@H](C(=O)O)C(C)C)C(C)C (H-KTLKIVCEV-OH; N-terminus and C-terminus assumed) | 2/4 co-cultures | 0.28 | T cell responses observed (IFNg) against epitope (CD8+ T cells [1]; [9]): 2/4 co-cultures; EC50 (HLA-A2; [10]): 4.4 µM |
| 5.05 | 4.5 |  |  | CC(C)C[C@H](NC(=O)[C@H](C)NC(=O)[C@H](CO)NC(=O)[C@H](CS)NC(=O)[C@H](C)NC(=O)[C@H](CC(C)C)NC(=O)[C@H](C)NC(=O)[C@H](CC(C)C)NC(=O)[C@@H](N)Cc1ccccc1)C(=O)O [FLALACSAL] (H-FLALACSAL-OH; N-terminus and C-terminus assumed) | 2/5 co-cultures | 0.077 | T cell responses observed (IFNg) against epitope (CD8+ T cells [1]; [9]): 2/5 co-cultures; EC50 (HLA-A2; Example 1, top-ranked epitopes, read-out: EC50 (HLA-A2 binding)): 5.1 µM |
| 3.28 | 3.43 |  |  | CC[C@H](C)[C@H](NC(=O)[C@H](Cc1ccc(O)cc1)NC(=O)[C@@H](NC(=O)[C@H](Cc1ccc(O)cc1)NC(=O)[C@H](CC(C)C)NC(=O)[C@H](Cc1ccccc1)NC(=O)[C@H](CCC(N)=O)NC(=O)[C@@H](N)Cc1ccccc1)[C@@H](C)O)C(=O)N[C@@H](C)C(=O)O (H-FQFLYTYIA-OH; N-terminus and C-terminus assumed) | 1/4 co-cultures | 0.43 | T cell responses observed (IFNg) against epitope (CD8+ T cells [1]; [9]): 1/4 co-cultures; EC50 (HLA-A2; [10]): 3.3 µM |
| 3.16 | 2.84 |  |  | CC(C)C[C@H](NC(=O)[C@H](C)N)C(=O)N[C@@H](C)C(=O)N[C@@H](CS)C(=O)N[C@@H](CO)C(=O)N[C@@H](C)C(=O)N[C@@H](CC(C)C)C(=O)NCC(=O)N[C@H](C(=O)O)C(C)C (H-ALACSALGV-OH; N-terminus and C-terminus assumed) | 0/4 co-cultures |  |  |
| 6.99 | 6.99 |  |  | CC[C@H](C)[C@H](NC(=O)[C@@H](NC(=O)[C@@H](N)CC(C)C)[C@@H](C)CC)C(=O)N[C@@H](CCCNC(=N)N)C(=O)N[C@@H](C)C(=O)N[C@@H](CCC(=O)O)C(=O)N[C@@H](CCC(=O)O)C(=O)N[C@@H](CC(C)C)C(=O)N[C@@H](C)C(=O)N[C@@H](CCC(N)=O)C(=O)N[C@@H](CCSC)C(=O)O (H-LIIRAEELAQM-OH; N-terminus and C-terminus assumed) | 1/7 co-cultures | 0.60 | binding to HLA-A2 (HLA-A2): did bind to HLA-A2 with high affinity |
| 91.2 | 38.2 |  |  | CSCC[C@H](NC(=O)[C@@H](N)CCCCN)C(=O)N[C@@H](CC(C)C)C(=O)N[C@@H](CCCCN)C(=O)N[C@@H](CCC(=O)O)C(=O)N[C@@H](Cc1ccccc1)C(=O)N[C@@H](C)C(=O)N[C@@H](CCCCN)C(=O)N[C@@H](C)C(=O)O (H-KMLKEFAKA-OH; N-terminus and C-terminus assumed) | 0/2 co-cultures |  |  |
|  |  |  |  | AELTPELLKI (Epitope 16) [eluted 10-mer, mapped in silico to HLA-B40:01] |  |  | binding to HLA-A2 (HLA-A2): did not bind to HLA-A2 |
|  |  | 1.38 | 1.27 | LIIRAEELAQM (11-mer found by immunopeptidomics; tested as synthetic peptide) [Epitope 5 peptide LIIRAEELAQM of ROPN1 and ROPN1B] |  |  | EC50 [4]: 6.99 µM; EC50 [5]: 6.99 µM; Amplitude [6]: 0.918 relative to YLE; Amplitude [8]: 3170 geometric mean normalized to baseline |
|  |  | 1.41 | 1.62 | FLALACSAL (Synthetic peptide) [Epitope 2 peptide FLALACSAL of ROPN1 and ROPN1B] |  |  | EC50 [4]: 4.5 µM; EC50 [5]: 5.05 µM; Amplitude [6]: 0.95 relative to YLE; Amplitude [8]: 3800 geometric mean normalized to baseline |
|  |  | 1.4 | 1.13 | MLNYIEQEV (Synthetic peptide (ThinkPeptides/ProImmune)) [Epitope 1 (MLN) peptide MLNYIEQEV of ROPN1B] |  |  | EC50 [4]: 4.82 µM; EC50 [5]: 6.56 µM; Amplitude [6]: 0.935 relative to YLE; Amplitude [8]: 3450 geometric mean normalized to baseline |
|  |  | 1.06 | 1.06 | GLPRIPFST (ROPN1B, predicted) |  |  |  |
|  |  | 1.09 | 1.09 | HVSRMLNYI (ROPN1B, predicted) |  |  |  |
